Reference: PMC12406664, “New derivatives of 6-nitrocoumarin-3-thiosemicarbazone exhibit improved antiparasitic activity in the placenta against Trypanosoma cruzi and Toxoplasma gondii” (Antimicrobial Agents and Chemotherapy, 2025)
“Also recorded” adds a separate entry of the source.

Legend:
[1] = Cytotoxicity on cells (resazurin), EA.hy926; format: cell-based; settings: human, EA.hy926 endothelial cells
From the text: (§1) Triton X-100 was used as a positive control, and untreated cells served as a negative control. In addition, the maximum concentration of DMSO was used as a control for the method. […] The obtained values were expressed as IC50([88]).

[2] = test system: T. gondii (RH strain) in HPE; assay: T. gondii DNA load in infected human placental explants (HPE) by real-time qPCR; format: cell-based, Toxoplasma gondii; settings: 24 hour post-infection treatment, IC50 concentration
Method: The effect on HPE infection of compounds 1 and 7 by Toxoplasma gondii and Trypanosoma cruzi, respectively, was evaluated. To do this, the DNA of the T. gondii or T. cruzi parasite was quantified by infecting HPE for 24 hours under treatment conditions of co-incubation of compounds with the parasite at the same time of infection, and with a 24 hour post-infection treatment. The compound’s IC50 concentration value previously obtained under both conditions was used.
Term human placentas were obtained from uncomplicated pregnancies via scheduled cesarean sections. Each patient provided informed consent for the experimental use of the placenta, and the study was approved by the ethics committee of Hospital San José, Servicio Salud Metropolitano Norte (N° 013/2022). Exclusion criteria for placental use included significant fetal anomalies, placental tumors, intrauterine infection, positive serology for Chagas disease, obstetric pathology, and any other maternal disease. Donor patients tested negative for T. gondii IgG/IgM antibodies. Organs were collected in sterile, cold PBS and processed within 30 minutes after delivery. Maternal and fetal surfaces of each placenta were discarded, and the villous tissue from the central part of the placental cotyledons was isolated. […] All the experiments were performed in triplicate in at least three different placentas.
Cells or HPE were exposed to parasites. […]
Subsequently, cells were exposed to parasites at a 1:1 ratio (cell: parasite) for 24 hours. […] The resulting DNA was quantified using a μDrop Plate DNA quantification system on the Varioskan Flash multimode reader (Thermo Scientific, USA). […]
(§2) Amplification was carried out using the CFX96 Touch Deep Well Real-Time PCR Detection System (Biorad, California, USA) with the following cycling program: initial denaturation at 95°C for 3 min, followed by 40 cycles of denaturation at 95°C for 5 s, annealing at 60°C for 30 s, and a dissociation stage ranging from 60°C to 95°C. The relative quantification analysis of the results was expressed as RQ values using the comparative […] (∆∆Ct) ([80]).

[3] = test system: T. gondii (RH strain) in BeWo cells; assay: T. gondii DNA load in infected BeWo cells by real-time qPCR; format: cell-based, Toxoplasma gondii; settings: IC50 concentration
Method: (§3) Cells or HPE were exposed to parasites. […] The following treatment conditions were used in both infection models. […] Untreated cells or HPE served as a negative control, and the compounds’ activity was compared with the reference drugs (NFX and PMN).
Subsequently, cells were exposed to parasites at a 1:1 ratio (cell: parasite) for 24 hours. Finally, the cells were washed with PBS and harvested using trypsin. For the parasitic DNA load in the ex vivo infection model, HPE was incubated in 24-well plates and exposed to parasites at a concentration of 10^5 parasites/mL for 24 hours. Finally, they were washed with PBS and homogenized using the ultraturrax homogenizer OMNI TipTM. Genomic DNA was extracted from BeWo cells or HPE using the Wizard Genomic DNA Purification Kit (Promega, USA) following the manufacturer’s instructions. The resulting DNA was quantified using a μDrop Plate DNA quantification system on the Varioskan Flash multimode reader (Thermo Scientific, USA). For the amplification of human DNA and parasitic DNA, three pairs of primers specific for human GAPDH (hGADPH), T. cruzi satellite DNA, and T. gondii B1 gene DNA were used (Table 7). Each reaction mixture contained 0.5 µL of 10 nM of each primer (Forward and reverse), 1 ng of DNA from T. cruzi samples, 10 ng of DNA from T. gondii samples, 10 µL of SensiFASTTM SYBR Hi-ROX kit (Bioline, Heidelberg, Baden Württemberg, Germany), and ultrapure water (Sigma-Aldrich, St. Louis, MO, USA) for a total of 20 µL.
as §2

[4] = Lipophilicity by reversed-phase TLC (RM); settings: reverse phase-C18, DMSO/phosphate buffer pH 7.4 (70:30 vol/vol), RM = log[(1/Rf) – 1]
Method: Lipophilicity was studied by reversed-phase TLC experiments. Precoated TLC plates SIL RP-18W/UV254 were used and eluted with DMSO/physiological serum (70:30, vol/vol). Stock solutions were prepared in pure DMSO (Aldrich) prior to use. The plates were developed in a closed chromatographic tank, dried, and the spots were located under UV light. The Rf values were averaged from three determinations and converted into RM values via the relationship: RM = log [(1/Rf)−1]

[5] = test system: HPE exposed to T. gondii tachyzoites; assay: Histopathology of HPE infected with T. gondii; format: cell-based, human; settings: IC50 concentration
From the text: as §3

[6] = test system: T. gondii tachyzoites (strain RH); assay: ESR spin trapping with DMPO in T. gondii; format: cell-based, Toxoplasma gondii; settings: compound about 1 mM, menadione 20 µM
Method: Each tested hybrid was dissolved in spectroscopy-grade DMSO at an approximate concentration of 1 mM and added to a mixture containing Trypanosoma cruzi (Dm28c strain) or Toxoplasma gondii at a density of 50 × 10⁶ trypomastigotes or tachyzoites per mL, along with DMPO at a final concentration of 250 mM. Menadione (20 µM) was used as a positive control.
All spectra were acquired on the same scale after 15 scans.

[7] = Cytotoxicity on cells (resazurin), BeWo; format: cell-based; settings: human, BeWo trophoblast cells
From the text: as §1

[8] = test system: T. cruzi trypomastigotes, Dm28 strain; assay: Resazurin viability assay on free T. cruzi trypomastigotes; settings: Trypanosoma cruzi, 24 h, read-out: Viability T. cruzi (%)
In short: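 Free Dm28 T. cruzi trypomastigotes were exposed to compounds at 100 µM for 24 h, with nifurtimox as positive control and untreated parasites as negative control. Resazurin (3 mM final) with 0.8 mM phenazine was then added for 3 h at 37°C, and fluorescence was read at 560/590 nm.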

[9] = test system: human placental explants (HPE); assay: Histopathology of uninfected HPE exposed to the compounds alone; settings: explants incubated only with the compound, 24 h, IC50 concentration
Method: The HPE was fixed in 10% formaldehyde in 0.1 M phosphate buffer (pH 7.3) for 24 h, dehydrated in alcohol, clarified in xylene, embedded in paraffin, and sectioned at 3 µm. Paraffin histological sections were stained with hematoxylin-eosin for routine histological analysis, Picro Sirius red, and trichromic Masson for collagen histochemistry. Sections for the histological analysis were observed under an optical microscope (Leica DM500) and images were captured with a Leica ICC50 W camera ([7], [91]).

[10] = Cyclic voltammetry, reduction potentials in DMSO (HDME, vs. Ag/AgCl); settings: 2.00 V/s
Method: Electrochemical studies were carried out on a Metrohm Autolab instrument model PGSTAT204, using dimethyl sulfoxide (DMSO) as the solvent (1 mM solutions), tetrabutylammonium perchlorate (0.1 M TBAP) as the supporting electrolyte, a hanging drop mercury electrode (HDME) as the working electrode, Ag/AgCl (3M KCl) as the reference electrode and a graphite rod as the counter electrode. All measurements were performed after bubbling with nitrogen (N2) for 10 minutes.

SMILES: C/C(=N\NC(N)=S)c1c(O)c2cc([N+](=O)[O-])ccc2oc1=O [Compound 1, (E)−2-(1-(4-hydroxy-6-nitro-2-oxo-2H-chromen-3-yl)ethylidene)hydrazine-1-carbothioamide]
- CC50 at 24 h [1]: > 400 µM
- effect on parasite DNA load [2]: not statistically significant; also recorded: did not reduce the parasitic load
- decrease in parasite DNA load ([3]; co-incubation): around 50%
- effect on parasite DNA load ([3]; post-infection treatment): no activity against the intracellular form
- Lipophilicity (RM) [4]: 0.00
- tissue damage in infected HPE (histopathology) ([5]; co-incubation): prevented tissue damage induced by tachyzoites
- tissue damage in infected HPE (histopathology) ([5]; post-infection treatment): did not reduce the parasitic load or mitigate tissue damage
- radical species detected by ESR spin trapping (DMPO) [6]: formation of only two spin adducts
- CC50 at 24 h [7]: 386.9 ± 1 µM
- viability at 100 µM [8]: 85.5 ± 11.3%
- tissue damage caused by the compound itself in HPE [9]: neither compound induced tissue damage
- E(pIIa) ([10]; anodic peak IIa): −0.98 V
- E(pIcb) ([10]; cathodic peak Icb, nitro reduction): ~−0.99 V
